For assay [1], the system named is guinea pig right atrium. The assay can be described thus: Atrial Test in Guinea Pigs (inhibition of histamine-stimulated heart rate, isolated right atrium). To be noted: Cavia porcellus; test compound 1 μg/ml; 10^-5 M histamine; heart rate vs control. The protocol: Atrial Test in Guinea Pigs
The guinea pig right atrium in a spontaneous palpitation was excised, suspended in 40 ml of Krebs-Henselite solution, and a tension of 1 g was loaded between the atrium preparation and a transducer. The solution was aerated at a fixed rate at 37° C. 10^-5 M histamine was added, and the heart rate was recorded as control. A test compound was added to a concentration of 1 μg/ml and then, after 3 minutes, 10^-5 M histamine was added, and the heart rate was again recorded. The inhibitory rate (R %) compared to the control group was calculated according to the following equation: […]
A: The heart rate of the control group
B: The heart rate of the group to which the drug was administered

The subject of assay [2] is gastric acid output. The assay can be described thus: Inhibition of Gastric Secretions (Shay's method, pylorus-ligated rats). The assay is classed as in vivo, rat (male SD). The conditions noted are these: Rattus norvegicus, intraduodenal, 4 hours. The protocol:
Inhibition of Gastric Secretions
This test was carried out according to Shay's method [H. Shay: Gastroenterology 5, 43 (1945)] using male SD rats (5 weeks old). The rats were divided into groups, each group containing 5 rats. The animals were fasted for 24 hours before the beginning of the experiment. They were then anesthetized with ether, the abdominal region was opened, and the pylorus was ligated. A test compound suspended in a 0.5% w/v aqueous carboxymethylcellulose (CMC) solution was administered intraduodenally. After 4 hours, the rat was sacrificed by deep anesthesia with ether, and the stomach was excised. The gastric juice was removed, centrifuged for 15 minutes at 2500 rpm, and then 0.1 ml of the supernatant was taken out and titrated until the end point of neutralization with a 0.01N aqueous solution of sodium hydroxide, to determine the total gastric acidity. The amount of gastric acid secreted per hour (μEq/hr) was calculated, and the inhibition rate (R %) to the control group was calculated according to the following equation.
A: The gastric acid output of the control group (μEq/hr)
B: The amount of gastric acid output of the drug administered group (μEq/hr)

The test system of assay [3] is gastric mucosa. The assay can be described thus: HCl-Ethanol-Induced Ulcer Test in Rats. The assay is classed as in vivo, rat (male SD). The conditions noted are these: dose 50 mg/kg, oral, 60 minutes before HCl-ethanol. The method, then:
HCl-Ethanol-Induced Ulcer Test in Rats
Male SD rats (6 to 8 weeks old) were fasted for 24 hours before the beginning of the experiment. Each was then administered orally with 1 ml of a 60% ethanol solution containing 150 mM of hydrogen chloride. After 1 hour, the stomach was excised. Into the stomach was injected 10 ml of a 0.5% formaldehyde solution, and the stomach was fixed for 20 minutes. The injured area (mm^2) occuring on the surface of the gastric mucosa was measured, and the total injured area per rat was regarded as the injury index.
Test compounds and 0.5% CMC, as the control, were orally administered each at a dose of 0.1 ml/100 g, 60 minutes before treatment with the HCl-ethanol solution.
The ulcer formation inhibitory rate (R %) was calculated by the following equation.
A: The injury index of the control group (mm^2)
B: The injury index of the drug administered group (mm^2)

Broadly, the inhibition is how much of the control response was suppressed. Read a high inhibition as a strong effect. The term inhibition in vivo denotes the change of the read-out against control, counted positive when it falls. For `Cc1nnc(SCCCC(=O)NC/C=C\COc2cc(CN3CCCCC3)ccn2)o1` [Example 37, N-[4-(4-Piperidinomethyl-2-pyridyloxy)-cis-2-butenyl]-4-(5-methyl-1,3,4-oxadiazol-2-ylthio)butyramide], the inhibition at 1 µg/mL in assay [1] was 99%. For the same compound, in assay [2], the inhibition in vivo at 50 mg/kg is 74%.

`O=C(NC/C=C\COc1cc(CN2CCCCC2)ccn1)NC1CCC1` [Example 58, N-Cyclobutyl-N'-[4-(4-piperidinomethyl-2-pyridyloxy) -cis-2-butenyl]urea]: the inhibition in vivo at 50 mg/kg in assay [2] was found to be 56%.

Turning to `O=C(CCCSc1nc[nH]n1)NC/C=C\COc1cc(CN2CCCCC2)ccn1` [Example 41, N-[4-(4-Piperidinomethyl-2-pyridyloxy)-cis-2-butenyl]-4-(1,2,4-triazol-3-ylthio)butyramide], the inhibition at 1 µg/mL in assay [1] was 85%. In assay [2], the inhibition in vivo at 25 mg/kg is 61% and the inhibition in vivo at 50 mg/kg was 76%.

As to `Nc1n[nH]cc1C(=O)NC/C=C\COc1cc(CN2CCCCC2)ccn1` [Example 17, 3-Amino-N-[4-(4-piperidinomethyl-2-pyridyloxy) -cis-2-butenyl]pyrazole-4-carboxamide], the inhibition at 1 µg/mL in assay [1] came to 83%. In addition, in assay [2], the inhibition in vivo at 25 mg/kg was 73% and the inhibition in vivo at 50 mg/kg was determined as 71%.

As for `CC(=O)OCCSCC(=O)NC/C=C\COc1cc(CN2CCCCC2)ccn1` [Example 2, N-[4-(4-Piperidinomethyl-2-pyridyloxy)-cis-2-butenyl]-2-(2-acetoxyethylthio)acetamide], the inhibition at 1 µg/mL in assay [1] stood at 90%. Also, the inhibition in vivo at 50 mg/kg in assay [2] was found to be 52%. Moreover, the “% Inhibition (ulcer formation)” value in assay [3] was 100%.

Regarding `O=C(CCCSc1ncccn1)NC/C=C\COc1cc(CN2CCCCC2)ccn1` [Example 34, N-[4-(4-Piperidinomethyl-2-pyridyloxy) -cis-2-butenyl]-4-(2-pyrimidinylthio) butyramide], in assay [1], testing at 1 µg/mL gave an inhibition of 94%. For the same compound, in assay [2], the inhibition in vivo at 12.5 mg/kg was 61% and the inhibition in vivo at 25 mg/kg is 86%. For the same compound, the “% Inhibition (ulcer formation)” value in assay [3] is recorded as 79%.

The compound `O=C(CSCc1ccco1)NC/C=C\COc1cc(CN2CCCCC2)ccn1` [Compound B, reference compound] gave an inhibition at 1 µg/mL in assay [1] of 99%. Further, the inhibition in vivo at 50 mg/kg in assay [2] was -40%. Moreover, the “% Inhibition (ulcer formation)” value in assay [3] was determined as 97%.

`CC(C)NC(=O)NC/C=C\COc1cc(CN2CCCCC2)ccn1` [Example 48, N-[4-(4-piperidinomethyl-2-pyridyloxy) -cis-2-butenyl]-N'-isopropylurea] came in with an inhibition at 1 µg/mL in assay [1] of 81%. In addition, in assay [2], the inhibition in vivo at 50 mg/kg is 71%. For the same compound, the “% Inhibition (ulcer formation)” value in assay [3] is 78%.

With `O=C(CSCCO)NCCCOc1cccc(CN2CCCCC2)c1` [Compound A, reference compound], in assay [1], the inhibition at 1 µg/mL was found to be 68%. Besides, in assay [2], the inhibition in vivo at 50 mg/kg was -67%. For the same compound, the “% Inhibition (ulcer formation)” value in assay [3] is 39%.

The compound `O=C(CSCCO)NC/C=C\COc1cc(CN2CCCCC2)ccn1` [Example 1, N-[4-(4-piperidinomethyl-2-pyridyloxy)-cis-2-butenyl]-2-(2-hydroxyethylthio)acetamide] yielded an inhibition at 1 µg/mL in assay [1] of 86%. In assay [2], the inhibition in vivo at 50 mg/kg worked out at 63%.

In the case of `CCC(=O)OCCSCC(=O)NC/C=C\COc1cc(CN2CCCCC2)ccn1` [Example 7, N-[4-(4-Piperidinomethyl-2-pyridyloxy)-cis-2-butenyl]-2-(2-propionyloxyethylthio)acetamide], in assay [2], the inhibition in vivo at 12.5 mg/kg is 51% and the inhibition in vivo at 25 mg/kg is 63%. Moreover, the “% Inhibition (ulcer formation)” value in assay [3] was 61%.

`O=C(NC/C=C\COc1cc(CN2CCCCC2)ccn1)c1cn[nH]c1` [Example 13, N-[4-(4-piperidinomethyl-2-pyridyloxy)-cis-2-butenyl]pyrazole-4-carboxamide] came in with an inhibition at 1 µg/mL in assay [1] of 84%. In assay [2], the inhibition in vivo at 25 mg/kg was determined as 62% and the inhibition in vivo at 50 mg/kg turned out to be 80%. In assay [3], the “% Inhibition (ulcer formation)” value is 87%.

Take `CC(=O)OCCSCCCC(=O)NC/C=C\COc1cc(CN2CCCCC2)ccn1` [Example 6, N-[4-(4-Piperidinomethyl-2-pyridyloxy)-cis-2-butenyl]-4-(2-acetoxyethylthio)butyramide]: the inhibition at 1 µg/mL in assay [1] is 86%. In addition, the inhibition in vivo at 50 mg/kg in assay [2] is 73%.

With `O=C(NC/C=C\COc1cc(CN2CCCCC2)ccn1)c1cscn1` [Example 26, N-[4-(4-Piperidinomethyl-2-pyridyloxy) -cis-2-butenyl]thiazole-4-carboxamide], the inhibition at 1 µg/mL in assay [1] is 80%.

The record behind these values is patent US5616579A, “Anti-ulcer pyridyloxy derivatives, their preparation and uses” (Sankyo Company, Limited, priority 1992, dated 1997).
